This note sets out measurements from patent publication US11633392B2 (priority 2016, dated 2023).

Marks after values point to notes of the source that are not given here. Some results are limits rather than exact numbers.

One data set concerns ICR male mice. The data set can be described thus: Reserpine-induced Parkinson's disease model mouse. The data set is classed as in vivo. To be noted: reserpine-treated mice, 10 mg/kg s.c. How it is done:
Reserpine-Induced Parkinson's Disease Model Mouse
ICR male mice (5 weeks old, Japan SLC) were obtained, and used after an acclimation period (5 to 12 days).
PD model was prepared with reference to the report of Hille et al. (Exp. Neurol., 2001, 172:189). It was prepared by intraperitoneally administering reserpine (5 mg/kg) 18 to 24 hours before the start of the test. The test was performed by subcutaneously administering a test compound to each mouse on the day of the test, immediately putting the mouse into a cage for monitoring locomotor activity, and measuring the migration distance over 60 minutes.

In the next data set the target is T1, human opioid μ receptor (Homo sapiens, UniProt P35372).
T1 construct: host or cells: CHO cells
The data set can be described thus: Opioid receptor function test (Lance Ultra cAMP Kit), μ receptor. The data set is classed as cell-based. How it is done: (§1) Opioid Receptor Function Test
(§2) The functional activities of the compounds provided by the present invention on the μ, δ, and κ opioid receptors were investigated.
(§3) The test was performed by using Lance Ultra cAMP Kit (PerkinElmer) according to a method predetermined for the kit. In the evaluation of the agonistic activity, CHO cells expressing each of the human opioid receptors (δ, μ, and κ, accession numbers and catalog numbers are mentioned below) and 10 μM of each test compound were reacted for 30 minutes in an assay buffer (1× HBSS, […], pH 7.4, […] (isobutylmethylxanthine), 7.5% BSA) in the presence of forskolin. Subsequently, the cAMP detection reagent included in the kit was added, and 1 hour afterward, time-resolved fluorescence measurement was performed by using the EnVision plate reader (PerkinElmer). The test compounds and the control drugs (δ: SNC80, μ: DAMGO, κ: U-69593) were evaluated in a concentration range of 10^−12 to 10^−5 M, a dose-response curve of each test compound was obtained from the fluorescence values at 665 nm, and EC50 value and the Emax value were calculated. The Emax value was calculated as a ratio of the maximum reaction of the test compound to the maximum reaction of each control drug, which is taken as 100%.
(§4) • δ: Catalog No. CT4607, Accession No. NM_000911.2 • μ: Catalog No. CT4605, Accession No. NM_000914 • κ: Catalog No. CT4606, Accession No. NM_000912 (ChanTest Corporation)

Another data set deals with Wistar male rats. The data set is described as follows: Rat elevated plus maze test. The data set is classed as in vivo. To be noted: oral, 3 mg/kg, 2 hours before test (FIG. 6). How it is done: Rat Elevated Plus Maze Test
Anxiolytic effects of the compounds provided by the present invention were investigated by the rat elevated plus maze test.
For the test, 7 to 9 weeks old Wistar male rats were used. […] Each test substance was dissolved in a 4.5% aqueous solution of cyclodextrin, and orally administered 2 hours before the start of the test. The test data were automatically analyzed by using video image action analysis software (Smart3.0, PanLab S.L., PanLab), and wall-less running route staying time ratio (%) was calculated.

For the next data set, the target named is T2, hERG potassium channel (Homo sapiens, UniProt Q12809).
T2 construct: host or cells: CHO cells
The data set is described as follows: hERG potassium channel inhibition test (automatic patch clamp). The data set is classed as cell-based. To be noted: pH 7.4, hERG-expressing CHO cells, tail current, read-out: hERG channel inhibitory action. How it is done:
hERG (Human Ether-A-Go-Go-Related Gene) Potassium Channel Inhibition Test
The test was performed with Port-a-Patch automatic patch clump apparatus (Nanion Technologies) using hERG channel-stably expressing CHO cells (purchased from Channelopathy Foundation). The membrane potential of the cells was maintained at −80 mV, then there were applied a depolarization pulse at +20 mV for 1.5 seconds, and a following test pulse at −50 mV for 1.5 seconds at a frequency of 1 time per 10 seconds, and the hERG current was confirmed as a tail current induced by the test pulse. The test compound was dissolved in an extracellular fluid (137 mM NaCl, 4 mM KCl, 1.8 mM CaCl2, 1 mM MgCl2, 10 mM D(+)-glucose, 10 mM HEPES, pH 7.4), and the solution was refluxed at room temperature for 5 minutes. The inhibition ratio was obtained from the ratio of the tail current value observed after the compound was applied based on the tail current value observed before the compound was applied, which was taken as 100%.
(In general: The hERG channel carries a current that helps repolarise heart muscle cells.)

For data set [1], the system named is olfactory bulbectomized (OBX) rat. The data set is described as follows: Hyperemotional reaction inhibition test using olfactory bulbectomized (OBX) rat. The data set is classed as in vivo. To be noted: for hyperemotional reactions of the OBX rats compared with the solvent administration group: maintained until day 14. An excerpt:
Hyperemotional Reaction Inhibition Test Using Olfactory Bulbectomized (OBX) Rat
According to the method of Saitoh et al. (Saitoh A, Yamada M, Yamada M, Takahashi K, Yamaguchi K, Murasawa H, Nakatani A, Tatsumi Y, Hirose N, and Kamei J: Antidepressant-like effects of the delta-opioid receptor agonist SNC80 ((+)-4-[(alphaR)-alpha-[(2S,5R)-2,5-dimethyl-4-(2-propenyl)-1-piperazinyl]-(3-methoxyphenyl)methyl]-N,N-diethylbenzamide) in an olfactory bulbectomized rat model, Brain Res., 2008, 1208:160-169), OBX rats were prepared by extracting the rat olfactory bulbs, and then breeding the rats in an isolated circumstance. Hyperemotional reaction was evaluated on the day 14 after the surgical operation and before the division into groups, and 2 hours after the administration on the days 1, 4, 7, 10, and 14 of the administration period according to the hyperemotional reaction evaluation criteria prepared by Gomita et al. (Gomita et al., Behavioral pharmacological and electroencephalographical studies of 7-chloro-1-methyl-5-phenyl-1H-1,5-benzodiazepine-2,4-(3H,5H:)-dione (Clobazam), Folia Pharmacologica Japonica, 82, 267 (1983)). The drug was subcutaneously administered once a day continuously over 14 days. As a positive control drug, fluoxetine, which is a selective serotonin reuptake inhibitor (SSRI), was used. As the solvent, a 1% cyclodextrin (CD) was used.

Another data set deals with T3, human opioid κ receptor (Homo sapiens, UniProt P41145).
T3 construct: host or cells: CHO cells
The data set is described as follows: Opioid receptor function test (Lance Ultra cAMP Kit), κ receptor. To be noted: maximum reaction not reached; maximum concentration 10 μM; U-69593 = 100%. The data set is classed as cell-based. How it is done:
as §1, §2, §3, §4

A further data set is described as follows: Metabolic stability test. It is filed as in vitro ADME. To be noted: liver microsomes; human hepatic microsomes, 0 to 60 minutes; read-out: metabolic clearance CLint. How it is done:
Human hepatic microsomes and a test substance were reacted for a certain period of time (0 to 60 minutes). The test substance, which was not metabolized in the reaction sample, was measured, and remaining ratio was calculated. The test substance-remaining ratio at the time when the reaction time is 0 hour is taken as 100%. The remaining ratio after incubation was plotted against time as a log-linear plot to obtain a regression line (y=100 e^−kt, k=inclination of straight line: clearance rate constant), and metabolic clearance CLint (mL/min/kg) was calculated by using the following equation. CLint*=k(−min)×52.5(mg MS protein/g liver)×26(g liver/kg)/MS protein (mg MS protein/mL) • *: Davies, B. and Morris T., Physiological parameters in laboratory animals and humans, Pharm. Res., 10(7)1093-1095, 1993 (Test Results)

T1 sequence (P35372 whole entry): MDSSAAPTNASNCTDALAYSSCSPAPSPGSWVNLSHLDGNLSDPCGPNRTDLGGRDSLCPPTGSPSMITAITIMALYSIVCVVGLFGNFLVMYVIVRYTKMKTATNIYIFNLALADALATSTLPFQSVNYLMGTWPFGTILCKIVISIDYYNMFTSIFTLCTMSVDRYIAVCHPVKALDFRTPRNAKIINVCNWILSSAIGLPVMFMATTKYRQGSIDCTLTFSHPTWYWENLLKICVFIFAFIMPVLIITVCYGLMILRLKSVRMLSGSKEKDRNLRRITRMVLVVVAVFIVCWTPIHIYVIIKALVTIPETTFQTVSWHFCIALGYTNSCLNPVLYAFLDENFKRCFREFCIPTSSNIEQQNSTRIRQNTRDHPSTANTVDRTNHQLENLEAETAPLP
T2 sequence (Q12809 whole entry): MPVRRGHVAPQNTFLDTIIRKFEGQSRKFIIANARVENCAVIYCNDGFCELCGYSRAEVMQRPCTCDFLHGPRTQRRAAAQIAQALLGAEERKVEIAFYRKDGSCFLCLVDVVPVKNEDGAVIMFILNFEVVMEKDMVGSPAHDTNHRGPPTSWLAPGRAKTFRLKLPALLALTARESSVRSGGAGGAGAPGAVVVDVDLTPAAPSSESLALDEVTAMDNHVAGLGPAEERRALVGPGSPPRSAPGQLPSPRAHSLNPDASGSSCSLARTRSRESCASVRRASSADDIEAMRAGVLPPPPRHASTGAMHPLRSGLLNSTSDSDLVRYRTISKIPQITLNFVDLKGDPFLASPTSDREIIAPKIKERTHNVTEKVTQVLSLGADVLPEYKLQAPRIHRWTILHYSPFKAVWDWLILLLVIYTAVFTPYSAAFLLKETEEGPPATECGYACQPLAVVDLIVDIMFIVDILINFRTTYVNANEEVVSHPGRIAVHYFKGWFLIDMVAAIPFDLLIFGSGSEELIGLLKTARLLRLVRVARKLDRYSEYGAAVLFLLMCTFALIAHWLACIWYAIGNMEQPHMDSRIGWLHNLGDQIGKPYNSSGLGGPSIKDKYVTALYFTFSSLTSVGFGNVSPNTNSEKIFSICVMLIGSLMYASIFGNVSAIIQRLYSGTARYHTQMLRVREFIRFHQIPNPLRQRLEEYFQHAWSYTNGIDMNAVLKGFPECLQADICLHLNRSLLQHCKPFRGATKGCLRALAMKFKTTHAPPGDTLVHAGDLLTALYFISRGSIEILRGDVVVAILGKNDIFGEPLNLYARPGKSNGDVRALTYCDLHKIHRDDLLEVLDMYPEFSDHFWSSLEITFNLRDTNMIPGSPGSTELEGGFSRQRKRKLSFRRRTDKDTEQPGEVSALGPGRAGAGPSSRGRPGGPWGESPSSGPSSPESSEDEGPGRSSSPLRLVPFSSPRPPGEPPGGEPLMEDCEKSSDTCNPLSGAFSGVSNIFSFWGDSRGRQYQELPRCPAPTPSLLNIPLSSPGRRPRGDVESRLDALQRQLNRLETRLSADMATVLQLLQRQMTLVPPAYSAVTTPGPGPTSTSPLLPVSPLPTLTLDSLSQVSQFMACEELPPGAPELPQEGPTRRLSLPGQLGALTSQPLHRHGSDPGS
T3 sequence (P41145 whole entry): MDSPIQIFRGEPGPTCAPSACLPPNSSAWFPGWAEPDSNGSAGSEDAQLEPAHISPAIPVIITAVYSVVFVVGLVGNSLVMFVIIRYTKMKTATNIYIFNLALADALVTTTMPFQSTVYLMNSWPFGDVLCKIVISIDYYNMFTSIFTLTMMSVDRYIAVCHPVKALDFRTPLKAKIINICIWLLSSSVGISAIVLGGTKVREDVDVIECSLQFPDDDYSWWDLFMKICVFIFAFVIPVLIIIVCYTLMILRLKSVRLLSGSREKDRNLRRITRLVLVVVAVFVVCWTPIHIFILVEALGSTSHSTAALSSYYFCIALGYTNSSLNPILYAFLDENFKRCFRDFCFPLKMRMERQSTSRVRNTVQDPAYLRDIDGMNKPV

As a reminder, the EC50 is the concentration needed to bring the measured effect to its halfway point. A word on the Emax: it is the maximal effect, on the per cent scale that the assay sets. In the case of `O=C(c1cccc(=O)[nH]1)N1C[C@H]2C[C@@]34CC[C@@H]1[C@@H]2[C@@]31CCN(CC2CC2)[C@@H]4Cc2ccc(O)cc21` [Example 7, 6-((1S,3aR,5aS,6R,11bR,11cS)-14-(cyclopropylmethyl)-10-hydroxy-2,3,3a,4,5,6,7,11c-octahydro-1H-6,11b-(epiminoethano)-1,5a-methanonaphtho[1,2-e]indole-3-carbonyl)pyridin-2(1H)-one], the exploratory behavior result in the data set on ICR male mice (60 minutes) was “significantly increased”. The standing up behavior result in the data set with ICR male mice (not significant (P=0.16)) is listed as “tendency of increase”. For the same compound, at human opioid μ receptor (CHO cells expressing human μ receptor, cAMP, in the presence of forskolin, read-out: μ receptor EC50 value), the EC50 was over 1 nM. On human opioid μ receptor (ratio to maximum reaction of control drug DAMGO taken as 100%), the Emax came to 10%. Further, the “wall-less running route staying time ratio” value in the data set with Wistar male rats is “significantly increased”. Also, the inhibition at 5 min, 10 µM at hERG potassium channel was under 50%. Further, the “hyperemotional reactions of the OBX rats compared with the solvent administration group” value in data set [1] (0.1 mg/kg s.c. once a day, from the day 4 of the administration period) is “significantly reduced”; in data set [1] (1 mg/kg s.c. once a day, from the day 1 of the administration period) it was “significantly reduced”. Moreover, the “hyperemotional reactions of the OBX rats relative to sham surgery group” value is recorded as “restored the condition even to a level comparable to that of the rats of the sham surgery group” in data set [1] (0.1 mg/kg s.c. once a day, on the day 7 of the administration period) and “restored the condition even to a level comparable to that of the rats of the sham surgery group” in data set [1] (1 mg/kg s.c. once a day, on the day 4 of the administration period). Moreover, the “κ receptor reaction rate at the maximum concentration (reference value, marked *)” value on human opioid κ receptor is −0.9* %. Moreover, the CLint scaled in the data set “Metabolic stability test” amounted to 5.6 mL/min/kg.
